Where “and” joins values, the source holds several entries; their conditions need not be identical. Equal values may be shown once. Entries after “also recorded” stand apart in the source; their conditions may differ. Read-outs that look alike come from different tables or passages of the source.
How the values were obtained:
Nav1.3 = conditions: read-out: IC50 Nav1.3; cited from earlier work
Nav1.1 = conditions: read-out: IC50 Nav1.1; cited from earlier work
rat Nav1.7 = conditions: cited from earlier work
hNav1.3 = hNav1.3 (Homo sapiens, UniProt Q9NY46); type: cell-based; conditions: inactivated-state Peak 2
[1] = system: endogenous TTX-S currents in ND7-23 cells; assay: cells; type: cell-based, rodent; conditions: for effect on resting- or inactivated-state TTX-S currents: 300 nM
mNav1.6 = mNav1.6 in Xenopus oocytes; cited from earlier work
hNav1.7 = hNav1.7 (Homo sapiens, UniProt Q15858); conditions: hNav1.7 in Xenopus oocytes; cited from earlier work
rNav1.4 = rNav1.4 in Xenopus oocytes; cited from earlier work
hNav1.5 = hNav1.5 on QPatch; cited from earlier work

hNav1.3, sequence (Q9NY46 whole entry): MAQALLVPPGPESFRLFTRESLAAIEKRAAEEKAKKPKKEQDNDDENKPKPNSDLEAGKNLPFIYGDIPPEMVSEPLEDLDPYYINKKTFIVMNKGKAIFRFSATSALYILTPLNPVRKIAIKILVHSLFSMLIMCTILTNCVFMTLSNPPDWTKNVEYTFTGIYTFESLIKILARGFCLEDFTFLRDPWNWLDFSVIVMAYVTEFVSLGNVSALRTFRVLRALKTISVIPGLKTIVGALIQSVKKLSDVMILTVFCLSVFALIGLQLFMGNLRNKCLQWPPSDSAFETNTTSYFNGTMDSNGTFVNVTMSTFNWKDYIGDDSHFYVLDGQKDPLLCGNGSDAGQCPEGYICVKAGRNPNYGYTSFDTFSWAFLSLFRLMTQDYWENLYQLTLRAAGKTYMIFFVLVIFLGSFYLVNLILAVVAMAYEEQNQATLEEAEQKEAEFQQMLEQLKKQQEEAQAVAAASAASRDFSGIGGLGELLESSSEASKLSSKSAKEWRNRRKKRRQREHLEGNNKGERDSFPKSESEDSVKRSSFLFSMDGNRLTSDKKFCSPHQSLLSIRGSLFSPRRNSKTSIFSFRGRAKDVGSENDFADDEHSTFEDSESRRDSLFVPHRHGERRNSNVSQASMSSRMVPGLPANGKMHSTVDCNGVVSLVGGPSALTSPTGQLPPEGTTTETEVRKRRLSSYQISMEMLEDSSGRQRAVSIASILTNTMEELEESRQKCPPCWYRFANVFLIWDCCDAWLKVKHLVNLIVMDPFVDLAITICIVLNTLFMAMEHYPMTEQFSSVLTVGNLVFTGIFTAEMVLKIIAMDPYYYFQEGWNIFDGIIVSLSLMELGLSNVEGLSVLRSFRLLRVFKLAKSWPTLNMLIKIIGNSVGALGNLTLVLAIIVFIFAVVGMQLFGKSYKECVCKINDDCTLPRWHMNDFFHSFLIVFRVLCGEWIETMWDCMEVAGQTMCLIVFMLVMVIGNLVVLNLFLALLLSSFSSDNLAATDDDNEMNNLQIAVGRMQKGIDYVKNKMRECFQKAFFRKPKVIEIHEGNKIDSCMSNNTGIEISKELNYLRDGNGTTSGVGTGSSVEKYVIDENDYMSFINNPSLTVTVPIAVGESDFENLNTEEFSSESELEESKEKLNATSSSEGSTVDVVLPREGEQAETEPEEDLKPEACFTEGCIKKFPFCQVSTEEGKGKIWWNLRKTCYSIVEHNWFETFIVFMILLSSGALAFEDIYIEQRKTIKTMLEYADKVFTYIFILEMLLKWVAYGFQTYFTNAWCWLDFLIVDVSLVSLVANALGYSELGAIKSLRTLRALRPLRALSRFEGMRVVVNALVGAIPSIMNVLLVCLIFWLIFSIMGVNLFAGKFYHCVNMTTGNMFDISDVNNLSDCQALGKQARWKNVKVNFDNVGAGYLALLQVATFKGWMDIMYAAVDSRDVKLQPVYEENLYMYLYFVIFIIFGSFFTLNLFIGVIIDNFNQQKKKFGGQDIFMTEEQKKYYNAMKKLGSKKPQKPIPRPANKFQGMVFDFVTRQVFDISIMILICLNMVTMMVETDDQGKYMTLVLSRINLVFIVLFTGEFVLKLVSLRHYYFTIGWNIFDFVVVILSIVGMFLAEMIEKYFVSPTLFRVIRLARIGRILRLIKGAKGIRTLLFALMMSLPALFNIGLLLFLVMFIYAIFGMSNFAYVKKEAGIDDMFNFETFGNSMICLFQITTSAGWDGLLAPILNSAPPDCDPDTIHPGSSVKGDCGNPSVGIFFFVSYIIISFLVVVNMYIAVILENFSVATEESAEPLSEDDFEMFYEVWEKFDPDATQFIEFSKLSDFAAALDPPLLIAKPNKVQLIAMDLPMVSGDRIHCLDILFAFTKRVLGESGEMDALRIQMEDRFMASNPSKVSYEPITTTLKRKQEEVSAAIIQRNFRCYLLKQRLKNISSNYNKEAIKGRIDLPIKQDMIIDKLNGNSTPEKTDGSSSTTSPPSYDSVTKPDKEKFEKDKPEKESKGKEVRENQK
hNav1.7, sequence (Q15858 whole entry): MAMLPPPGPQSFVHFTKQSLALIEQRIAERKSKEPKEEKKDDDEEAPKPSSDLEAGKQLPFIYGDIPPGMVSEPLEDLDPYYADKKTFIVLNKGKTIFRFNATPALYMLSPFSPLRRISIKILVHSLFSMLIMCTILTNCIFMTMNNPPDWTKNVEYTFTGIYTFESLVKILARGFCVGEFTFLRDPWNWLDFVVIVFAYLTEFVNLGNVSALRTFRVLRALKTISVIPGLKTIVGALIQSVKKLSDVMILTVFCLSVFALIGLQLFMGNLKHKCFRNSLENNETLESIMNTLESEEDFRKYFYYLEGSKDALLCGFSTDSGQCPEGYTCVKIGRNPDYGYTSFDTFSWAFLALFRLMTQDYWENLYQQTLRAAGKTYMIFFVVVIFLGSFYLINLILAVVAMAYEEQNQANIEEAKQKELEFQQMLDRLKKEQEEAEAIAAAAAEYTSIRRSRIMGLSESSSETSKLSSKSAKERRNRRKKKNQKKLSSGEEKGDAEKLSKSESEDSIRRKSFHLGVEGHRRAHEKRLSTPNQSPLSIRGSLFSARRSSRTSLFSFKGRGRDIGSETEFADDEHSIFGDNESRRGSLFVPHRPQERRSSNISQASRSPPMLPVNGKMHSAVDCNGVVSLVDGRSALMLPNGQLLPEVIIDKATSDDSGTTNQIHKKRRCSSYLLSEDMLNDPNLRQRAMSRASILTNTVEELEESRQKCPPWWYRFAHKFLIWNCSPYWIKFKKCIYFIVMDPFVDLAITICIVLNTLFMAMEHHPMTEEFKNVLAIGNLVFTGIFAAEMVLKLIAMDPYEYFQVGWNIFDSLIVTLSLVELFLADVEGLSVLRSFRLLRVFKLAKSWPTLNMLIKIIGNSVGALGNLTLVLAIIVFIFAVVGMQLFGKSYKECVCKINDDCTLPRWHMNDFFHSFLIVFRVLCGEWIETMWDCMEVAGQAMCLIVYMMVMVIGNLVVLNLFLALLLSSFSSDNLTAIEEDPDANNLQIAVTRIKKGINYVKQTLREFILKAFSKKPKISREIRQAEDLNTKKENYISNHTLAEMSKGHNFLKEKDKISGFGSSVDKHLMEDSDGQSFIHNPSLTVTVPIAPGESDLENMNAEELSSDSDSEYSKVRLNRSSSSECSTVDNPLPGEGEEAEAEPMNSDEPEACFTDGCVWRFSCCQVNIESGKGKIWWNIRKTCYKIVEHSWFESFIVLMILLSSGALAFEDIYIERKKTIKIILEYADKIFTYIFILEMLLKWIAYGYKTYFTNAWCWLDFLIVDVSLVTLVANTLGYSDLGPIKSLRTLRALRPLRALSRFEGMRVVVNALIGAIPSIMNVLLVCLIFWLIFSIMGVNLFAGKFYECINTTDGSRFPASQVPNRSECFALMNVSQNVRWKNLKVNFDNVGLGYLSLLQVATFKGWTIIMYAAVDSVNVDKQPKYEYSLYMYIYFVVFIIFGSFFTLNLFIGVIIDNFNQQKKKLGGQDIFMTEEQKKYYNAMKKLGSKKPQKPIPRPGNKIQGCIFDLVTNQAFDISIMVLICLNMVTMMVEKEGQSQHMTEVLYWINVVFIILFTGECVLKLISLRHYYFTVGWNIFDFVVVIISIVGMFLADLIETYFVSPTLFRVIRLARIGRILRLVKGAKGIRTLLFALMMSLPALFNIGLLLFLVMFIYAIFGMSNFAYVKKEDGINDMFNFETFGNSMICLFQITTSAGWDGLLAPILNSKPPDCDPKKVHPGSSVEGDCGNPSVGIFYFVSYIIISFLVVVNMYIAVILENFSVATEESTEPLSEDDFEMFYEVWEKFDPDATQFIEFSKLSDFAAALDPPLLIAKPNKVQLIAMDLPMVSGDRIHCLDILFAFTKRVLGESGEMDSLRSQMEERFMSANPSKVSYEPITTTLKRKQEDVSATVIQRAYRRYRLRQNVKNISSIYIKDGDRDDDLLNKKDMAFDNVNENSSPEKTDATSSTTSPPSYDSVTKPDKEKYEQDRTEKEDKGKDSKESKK

Compound	IC50 (Nav1.3)	IC50 (Nav1.1)	potency against rat Nav1.7 channels (rat Nav1.7)	hillslope, Peak 2 (hNav1.3)	effect on resting- or inactivated-state TTX-S currents [1]	effect on resting- or inactivated-state TTX-S currents ([1]; listed as Icagen Nav1.3 antagonist)	reduction of resting-state Peak 1 TTX-S current ([1]; 1 μM, Peak 1, mean ± SEM)	reduction of inactivated Peak 2 TTX-S current ([1]; 1 μM, Peak 2, mean ± SEM)	inhibition at 0.3 µM ([1]; ND7/23, read-out: ND7-23 TTX-S % Inhibition, Peak 1)	inhibition at 0.3 µM ([1]; ND7/23, read-out: ND7-23 TTX-S % Inhibition, Peak 2)	IC50 ([1]; ND7/23, read-out: ND7-23 TTX-S IC50, Peak 1)	IC50 ([1]; ND7/23, read-out: ND7-23 TTX-S IC50, Peak 2)	inhibition at 0.3 µM ([1]; ND7/23, read-out: inhibition of inward TTX-S currents)	inhibition of TTX-S currents, maximum over all concentrations tested ([1]; all test concentrations)	effects on resting or inactivated current amplitudes (mNav1.6)	effects on resting or inactivated current amplitudes (hNav1.7)	effects on resting or inactivated current amplitudes (rNav1.4)	effects on resting or inactivated current amplitudes (hNav1.5)
O=C(Nc1ccc(S(=O)(=O)Nc2nccs2)cc1)C(c1ccccc1)c1ccccc1 [ICA-121431]	~20 nM	~20 nM	low nanomolar potency															
O=C(Nc1ccc(S(=O)(=O)Nc2nccs2)cc1)[C@@H]1C[C@H]1c1ccccc1 [Icagen compound 68, (1R,2R)-2-phenyl-N-(4-(N-(thiazol-2-yl)sulfamoyl)phenyl)cyclopropane-1-carboxamide]				1.2	no effect; also recorded: negligible effects	no significant effect	0.7% ± 3.0%	8.5% ± 1.7% and 8.5%	0.8%	-0.5%	> 10000 nM	> 10000 nM	~0.5%	< 50%	no significant effects	no significant effects	no significant effects	no significant effects
